In PubChem BioAssay AID248 (DTP/NCI, 2004):
Several values for one entry are separate records, joined by “and”; a condition that tells them apart may be missing. Equal entries are not always repeated. Toxic doses and inconclusive results are not listed. No stated cut-off is given here; in the data, active means T/C of 150% or more; inactive means T/C below 125%. Peptide text beside a SMILES is read from it. * marks the point of attachment. Cbz = O=C(OCc1ccccc1)*; CH2Cl = ClC*

Tested on: L1210 leukemia ip in BDF1 mice, survival T/C
Assay: NCI In Vivo Anticancer Drug Screen. Data for tumor model L1210 Leukemia (intraperitoneal) in B6D2F1 (BDF1) mice
Settings: endpoint: mean survival time, higher = longer survival
In short: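 Read-out is survival time, reported as the treated-group measurement over the vehicle-control measurement.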

[1] = dose: 100.0 mg/kg/injection, schedule: Q01DX001 (ip), vehicle: saline
[2] = dose: 100.0 mg/kg/injection, schedule: Q04DX003 (ip), vehicle: Klucel (hydroxypropylcellulose) (HPC)
[3] = dose: 200.0 mg/kg/injection, schedule: Q04DX003 (ip), vehicle: Klucel (hydroxypropylcellulose) (HPC)
[4] = dose: 400.0 mg/kg/injection, schedule: Q04DX003 (ip), vehicle: Klucel (hydroxypropylcellulose) (HPC)
[5] = dose: 100.0 mg/kg/injection, schedule: Q04DX003 (ip), vehicle: saline with Tween-80
[6] = dose: 200.0 mg/kg/injection, schedule: Q04DX003 (ip), vehicle: saline with Tween-80
[7] = dose: 400.0 mg/kg/injection, schedule: Q04DX003 (ip), vehicle: saline with Tween-80
[8] = dose: 25.0 mg/kg/injection, schedule: Q04DX003 (ip), vehicle: Klucel (hydroxypropylcellulose) (HPC)
[9] = dose: 50.0 mg/kg/injection, schedule: Q04DX003 (ip), vehicle: Klucel (hydroxypropylcellulose) (HPC)
[10] = dose: 100.0 mg/kg/injection, schedule: Q04DX003 (ip), vehicle: saline
[11] = dose: 200.0 mg/kg/injection, schedule: Q04DX003 (ip), vehicle: saline
[12] = dose: 400.0 mg/kg/injection, schedule: Q04DX003 (ip), vehicle: saline
[13] = dose: 100.0 mg/kg/injection, schedule: Q01DX009 (ip), vehicle: Klucel (hydroxypropylcellulose) (HPC)
[14] = dose: 200.0 mg/kg/injection, schedule: Q01DX009 (ip), vehicle: Klucel (hydroxypropylcellulose) (HPC)
[15] = dose: 100.0 mg/kg/injection, schedule: Q04DX002 (ip), vehicle: saline
[16] = dose: 200.0 mg/kg/injection, schedule: Q04DX002 (ip), vehicle: saline
[17] = dose: 400.0 mg/kg/injection, schedule: Q04DX002 (ip), vehicle: saline
[18] = dose: 100.0 mg/kg/injection, schedule: Q01DX001 (ip), vehicle: carboxymethylcellulose (CMC)
[19] = dose: 200.0 mg/kg/injection, schedule: Q01DX001 (ip), vehicle: carboxymethylcellulose (CMC)
[20] = dose: 400.0 mg/kg/injection, schedule: Q01DX001 (ip), vehicle: carboxymethylcellulose (CMC)
[21] = dose: 200.0 mg/kg/injection, schedule: Q01DX001 (ip), vehicle: saline
[22] = dose: 400.0 mg/kg/injection, schedule: Q01DX001 (ip), vehicle: saline
[23] = dose: 100.0 mg/kg/injection, schedule: Q01DX001 (ip), vehicle: saline with Tween-80
[24] = dose: 200.0 mg/kg/injection, schedule: Q01DX001 (ip), vehicle: saline with Tween-80

Measured: T/C

CCCCCCCCCCCCCC[N+]1(C)CCS(=O)CC1 (stereo unspecified)
inactive: dose: 25.0 mg/kg/injection, schedule: Q01DX001 (ip), vehicle: saline 102 % of control | dose: 50.0 mg/kg/injection, schedule: Q01DX001 (ip), vehicle: saline 107 % of control | [1] 102 % of control

O=c1ccc2c([nH]1)CCCCC2
inactive: [2] 106 % of control | [3] 100 % of control | [4] 95 % of control

O=C1c2ccccc2C(=O)C1c1ccc2ccccc2n1
inactive: [5] 95 % of control | [6] 91 % of control | [7] 93 % of control

Cc1cc(C)c2ccc([S+](C)C)c-2c(C)c1
inactive: dose: 5.0 mg/kg/injection, schedule: Q01DX001 (ip), vehicle: carboxymethylcellulose (CMC) 105 % of control | dose: 10.0 mg/kg/injection, schedule: Q01DX001 (ip), vehicle: carboxymethylcellulose (CMC) 100 % of control | dose: 20.0 mg/kg/injection, schedule: Q01DX001 (ip), vehicle: carboxymethylcellulose (CMC) 105 % of control | dose: 40.0 mg/kg/injection, schedule: Q01DX001 (ip), vehicle: carboxymethylcellulose (CMC) 108 % of control | dose: 80.0 mg/kg/injection, schedule: Q01DX001 (ip), vehicle: carboxymethylcellulose (CMC) 97 % of control

CCSC(=O)Nc1cccc(O)c1
inactive: dose: 100.0 mg/kg/injection, schedule: Q01DX001 (ip), vehicle: saline + alcohol 94 % of control | dose: 200.0 mg/kg/injection, schedule: Q01DX001 (ip), vehicle: saline + alcohol 94 % of control | dose: 400.0 mg/kg/injection, schedule: Q01DX001 (ip), vehicle: saline + alcohol 93 % of control

CC(C)CC(NC(=O)OCc1ccccc1)C(=O)NC(Cc1ccccc1)C(=O)CCl (stereo not drawn) (Cbz-Leu-Phe-CH2Cl; configuration not given here)
inactive: [8] 104 % of control | [9] 102 % of control | dose: 100.0 mg/kg/injection, schedule: Q01DX001 (ip), vehicle: Klucel (hydroxypropylcellulose) (HPC) 90 % of control | [2] 96 % of control and 89 % of control | dose: 200.0 mg/kg/injection, schedule: Q01DX001 (ip), vehicle: Klucel (hydroxypropylcellulose) (HPC) 88 % of control | dose: 400.0 mg/kg/injection, schedule: Q01DX001 (ip), vehicle: Klucel (hydroxypropylcellulose) (HPC) 103 % of control

CCOP(=O)(/C=C/c1ccccc1)OCC
inactive: [10] 109 % of control | [11] 98 % of control | [12] 87 % of control

Cc1cc(C)c(N(C)C(=O)CCC(=O)O)c(Br)c1
inactive: [13] 89 % of control | [2] 101 % of control | [14] 101 % of control | [3] 100 % of control | dose: 400.0 mg/kg/injection, schedule: Q01DX009 (ip), vehicle: Klucel (hydroxypropylcellulose) (HPC) 101 % of control | [4] 94 % of control

N#Cc1ccccc1C(N)=O
inactive: dose: 12.5 mg/kg/injection, schedule: Q04DX002 (ip), vehicle: saline 107 % of control | dose: 25.0 mg/kg/injection, schedule: Q04DX002 (ip), vehicle: saline 98 % of control | dose: 50.0 mg/kg/injection, schedule: Q04DX002 (ip), vehicle: saline 102 % of control | [15] 90 % of control

CC(=O)CSC(=S)OC(C)C
inactive: [15] 112 % of control | [16] 94 % of control | [17] 105 % of control

O=C1C(Br)=CC(=NBr)C=C1Br
inactive: [8] 101 % of control | [9] 101 % of control | [2] 97 % of control

CCCCN(C)/N=N/c1nc[nH]c1C(=O)OCC
inactive: [18] 96 % of control | [19] 109 % of control | [20] 124 % of control

N#Cc1ccc(OCCCOc2ccc([N+](=O)[O-])cc2)cc1
inactive: [2] 106 % of control | [3] 100 % of control | [4] 103 % of control

O=C(COc1ccc(Cl)cc1Cl)Nc1ccccc1[N+](=O)[O-]
inactive: [15] 92 % of control | [16] 92 % of control | [17] 92 % of control

CCC(C)C(CN)(CCCN1CCCC1)c1cccc2ccccc12 (stereo unspecified)
inactive: [5] 92 % of control | [6] 89 % of control | [7] 101 % of control

O=S(=O)(O)c1cc(O)c(S(=O)(=O)O)cc1O
inactive: [10] 98 % of control | [11] 92 % of control | [12] 110 % of control

CCCCCCCCCC(=O)N/N=C/c1ccco1
inactive: [13] 87 % of control | [14] 99 % of control

Nc1nc2ncnc(N)c2nc1-c1ccc(N(CCO)CCO)cc1
inactive: [1] 104 % of control | [21] 95 % of control | [22] 100 % of control

O=C(O)c1csnn1
inactive: [1] 102 % of control | [21] 97 % of control | [22] 103 % of control

Cc1ccc2c(ccc3c[n+]4c5ccccc5ccc4n32)c1
inactive: dose: 5.0 mg/kg/injection, schedule: Q01DX001 (ip), vehicle: saline 97 % of control | dose: 10.0 mg/kg/injection, schedule: Q01DX001 (ip), vehicle: saline 100 % of control | dose: 20.0 mg/kg/injection, schedule: Q01DX001 (ip), vehicle: saline 101 % of control | dose: 40.0 mg/kg/injection, schedule: Q01DX001 (ip), vehicle: saline 117 % of control

O=C(O)c1c(F)c(F)c(-c2c(F)c(F)c(F)c(F)c2F)c(F)c1F
inactive: [23] 86 % of control | [24] 91 % of control

Cn1c(CN(CCCl)CCCl)nc2c1c(=O)[nH]c(=O)n2C
inactive: dose: 50.0 mg/kg/injection, schedule: Q01DX001 (ip), vehicle: carboxymethylcellulose (CMC) 108 % of control | [18] 102 % of control | dose: 178.0 mg/kg/injection, schedule: Q01DX001 (ip), vehicle: carboxymethylcellulose (CMC) 109 % of control | [19] 119 % of control | dose: 267.0 mg/kg/injection, schedule: Q01DX001 (ip), vehicle: carboxymethylcellulose (CMC) 111 % of control and 116 % of control | [20] 93 % of control | dose: 600.0 mg/kg/injection, schedule: Q01DX001 (ip), vehicle: carboxymethylcellulose (CMC) 90 % of control

CC(=O)NC1C(OC(C)=O)OC(COC(C)=O)C(OC(C)=O)C1OC(C)=O (stereo unspecified)
inactive: [23] 100 % of control | [24] 103 % of control | dose: 400.0 mg/kg/injection, schedule: Q01DX001 (ip), vehicle: saline with Tween-80 103 % of control
